Consider 1 substance from patent US8455460B2, “Cosmetic composition containing one or more compounds of the β-(1,3)-glucuronan or β-(1,3)-glucoglucuronan type” (Greentech, priority 2007, dated 2013).

For one data set, the system named is human fibroblasts. Nature of the data set: transcriptomic study on human fibroblasts cultivated in vitro in the absence or presence of the compounds. As to conditions: cellular renewal. The data set is classed as cell-based. The text has this: The biological activities of β-(1,3)-glucuronan compounds or of a mixture of β-(1,3)-glucoglucuronan compounds were screened by an original method of molecular biology (transcriptomic technique) and then detected by methodologies used conventionally in cosmetology.
This adipokine produced locally in the adipose tissue inhibits the activity of the enzyme lipoprotein lipase (LPL) thus preventing the transfer of fatty acids from the lipoproteins to the adipocytes, thus greatly reducing lipogenesis. At the same time, this adipokine activates the enzyme ATGL (adipose triglyceride lipase), present in the adipocytes, thus greatly increasing lipolysis and the release of fatty acids from the adipocytes.
In fact, the transitory induction (under the control of TFPI2 and of PDGFD) of the metalloproteinases (MMP) and the transitory inhibition (under the control of TFPI2) of HAPLN1, permit transitory, localized destabilization of the stressed site (requiring cicatrization) of the extracellular matrix, mainly by catabolic action on the collagen fibers. […]

A short description of data set [1]: clinical study on human volunteers, daily topical application of cream (cellulite, orange-peel skin). As to conditions: cream containing 3%, daily topical application for 30 days, placebo 27%. It is filed as in vivo. The text has this: The orange-peel skin effect is reduced in 53% of the volunteers (against 27% in the group of volunteers treated with a placebo).

The test system of a further data set is adipocytes. Nature of the data set: in-vitro study on adipocytes: density of fatty acids stored as triglycerides in the lipid vacuoles. The following applies: concentration of 0.5%. It is filed as cell-based.
Data set [2] is described as follows: chelation and sequestration of cationic ions, investigated by atomic absorption. It is filed as physicochemical. As to conditions: Na+, Cu+, Cu2+, Ca2+, Mg2+, Zn2+, with stirring, compounds recovered and washed. The source says: The β-(1,3)-glucuronan compounds or the mixture of β-(1,3)-glucoglucuronan compounds are polyanionic molecules capable of chelating and of sequestering mono- and divalent cationic ions.

As to “β-(1,3)-D-polyglucuronic acid [β-(1,3)-glucuronan compound]”, in the data set on human fibroblasts, the “expression of TFPI2” value is listed as “overexpressed” and the “expression of the genes EGR1, PTGS2, PDGFD, NPTX1” value was “overexpression”. Also, the “volunteers in whom the orange-peel skin effect is reduced” value in data set [1] is 53%. For the same substance, the “decrease in the density of fatty acids stored in the form of triglycerides in the lipid vacuoles of the adipocytes” value with adipocytes was about 25%. In addition, in data set [2], the “chelating and sequestering of mono- and divalent cationic ions” value was “chelate and sequester”.
